The values below come from patent US6737441B2, “Treatment of helicobacter with isothiocyanates” (priority 2000, dated 2004).

By MIC is commonly meant the lowest concentration found to suppress growth.

The conditions of test [1]: in cell culture; cited from earlier work.
In test [2] the test system is clarithromycin and/or metronidazole - intermediate or resistant strains of Helicobacter pylori. Briefly: Bacteriostatic activity (MIC) against intermediate or resistant strains. The format is cell-based.
In test [3] the test system is amoxicillin/clarithromycin/metronidazole - susceptible strains of Helicobacter pylori. As to the kind of experiment: Bacteriostatic activity (MIC) against susceptible strains. The format is cell-based.
The mark [4] stands for this setting: Helicobacter pylori, H. pylori strain no 33, read-out: MIC.
The mark [5] stands for this setting: Helicobacter pylori, H. pylori strain no 35, read-out: MIC.
The mark [6] stands for this setting: Helicobacter pylori, H. pylori strain no 36, read-out: MIC.
Where [7] appears, read: Helicobacter pylori, H. pylori strain no 37, read-out: MIC.
Setting [8] is: Helicobacter pylori, H. pylori strain no 38, read-out: MIC.
[9] abbreviates: Helicobacter pylori, H. pylori strain no 40, read-out: MIC.
[10] abbreviates: Helicobacter pylori, H. pylori strain no 41, read-out: MIC.
[11] abbreviates: Helicobacter pylori, H. pylori strain no 42, read-out: MIC.
Where [12] appears, read: Helicobacter pylori, H. pylori strain no 43, read-out: MIC.
Setting [13] is: Helicobacter pylori, H. pylori strain no 44, read-out: MIC.
[14] abbreviates: Helicobacter pylori, H. pylori strain no 45, read-out: MIC.
The mark [15] stands for this setting: Helicobacter pylori, H. pylori strain no 46, read-out: MIC.
The mark [16] stands for this setting: Helicobacter pylori, H. pylori strain no 47, read-out: MIC.
The mark [17] stands for this setting: Helicobacter pylori, H. pylori strain no 1, read-out: MIC.
The mark [18] stands for this setting: Helicobacter pylori, H. pylori strain no 4, read-out: MIC.
[19] abbreviates: Helicobacter pylori, H. pylori strain no 5, read-out: MIC.
Setting [20] is: Helicobacter pylori, H. pylori strain no 6, read-out: MIC.
[21] abbreviates: Helicobacter pylori, H. pylori strain no 7, read-out: MIC.
[22] abbreviates: Helicobacter pylori, H. pylori strain no 8, read-out: MIC.
The mark [23] stands for this setting: Helicobacter pylori, H. pylori strain no 9, read-out: MIC.
The mark [24] stands for this setting: Helicobacter pylori, H. pylori strain no 10, read-out: MIC.
[25] abbreviates: Helicobacter pylori, H. pylori strain no 11, read-out: MIC.
Setting [26] is: Helicobacter pylori, H. pylori strain no 12, read-out: MIC.
[27] abbreviates: Helicobacter pylori, H. pylori strain no 13, read-out: MIC.
The mark [28] stands for this setting: Helicobacter pylori, H. pylori strain no 14, read-out: MIC.
Setting [29] is: Helicobacter pylori, H. pylori strain no 15, read-out: MIC.
The mark [30] stands for this setting: Helicobacter pylori, H. pylori strain no 16, read-out: MIC.
[31] abbreviates: Helicobacter pylori, H. pylori strain no 17, read-out: MIC.
Setting [32] is: Helicobacter pylori, H. pylori strain no 18, read-out: MIC.
The mark [33] stands for this setting: Helicobacter pylori, H. pylori strain no 23, read-out: MIC.
[34] abbreviates: Helicobacter pylori, H. pylori strain no 24, read-out: MIC.
Setting [35] is: Helicobacter pylori, H. pylori strain no 25, read-out: MIC.
Setting [36] is: Helicobacter pylori, H. pylori strain no 26, read-out: MIC.
[37] abbreviates: Helicobacter pylori, H. pylori strain no 27, read-out: MIC.
Setting [38] is: Helicobacter pylori, H. pylori strain no 29, read-out: MIC.
[39] abbreviates: Helicobacter pylori, H. pylori strain no 30, read-out: MIC.
Where [40] appears, read: Helicobacter pylori, H. pylori strain no 31, read-out: MIC.
Setting [41] is: Helicobacter pylori, H. pylori strain no 32, read-out: MIC.

Molecules are shown by their SMILES. ≈ marks a conversion by molar mass, not a printed value. Like-named read-outs stand apart in the source and are kept apart here.

Regarding `CS(=O)(=O)CCCN=C=S` [cheirolin], the “activity as inducers relative to sulforaphane and sulforaphene” value in test [1] is on record as “less active”.

With `CS(=O)(=O)CCCCN=C=S` [erysolin], the “activity as inducers relative to sulforaphane and sulforaphene” value in test [1] is “less active”.

In the case of `Cc1ncc([N+](=O)[O-])n1CCO` [Metronidazole], the MIC in test [2] (setting [4]) is 32 µg/mL (≈ 187 µM); in test [2] (Helicobacter pylori, H. pylori strain no 34, read-out: MIC), 256 µg/mL (≈ 1500 µM); in test [2] (setting [5]), 64 µg/mL (≈ 374 µM); in test [2] (setting [6]), 64 µg/mL (≈ 374 µM); in test [2] (setting [7]), 64 µg/mL (≈ 374 µM); in test [2] (setting [8]), 64 µg/mL (≈ 374 µM). In addition, the MIC in test [2] (Helicobacter pylori, H. pylori strain no 39, read-out: MIC) came to 256 µg/mL (≈ 1500 µM); in test [2] (setting [9]), 64 µg/mL (≈ 374 µM); in test [2] (setting [10]), 16 µg/mL (≈ 93.5 µM); in test [2] (setting [11]) it was 1 µg/mL (≈ 5.84 µM); in test [2] (setting [12]), 1 µg/mL (≈ 5.84 µM); in test [2] (setting [13]), 0.5 µg/mL (≈ 2.92 µM). The minimum inhibitory concentration (MIC) in test [2] (setting [14]) was found to be 2 µg/mL (≈ 11.7 µM); in test [2] (setting [15]), 32 µg/mL (≈ 187 µM); in test [2] (setting [16]) it was 64 µg/mL (≈ 374 µM); in test [3] (setting [17]) it was 1 µg/mL (≈ 5.84 µM); in test [3] (Helicobacter pylori, H. pylori strain no 2, read-out: MIC) it was 1 µg/mL (≈ 5.84 µM); in test [3] (Helicobacter pylori, H. pylori strain no 3, read-out: MIC), 1 µg/mL (≈ 5.84 µM). Further, the MIC was found to be 1 µg/mL (≈ 5.84 µM) in test [3] (setting [18]); 4 µg/mL (≈ 23.4 µM) in test [3] (setting [19]); 0.06 µg/mL (≈ 0.351 µM) in test [3] (setting [20]); 0.06 µg/mL (≈ 0.351 µM) in test [3] (setting [21]); 0.5 µg/mL (≈ 2.92 µM) in test [3] (setting [22]); 1 µg/mL (≈ 5.84 µM) in test [3] (setting [23]). The MIC in test [3] (setting [24]) was determined as 0.5 µg/mL (≈ 2.92 µM); in test [3] (setting [25]), 0.25 µg/mL (≈ 1.46 µM); in test [3] (setting [26]), 1 µg/mL (≈ 5.84 µM); in test [3] (setting [27]), 1 µg/mL (≈ 5.84 µM); in test [3] (setting [28]), 0.06 µg/mL (≈ 0.351 µM); in test [3] (setting [29]), 0.06 µg/mL (≈ 0.351 µM). In addition, the MIC in test [3] (setting [30]) worked out at 0.5 µg/mL (≈ 2.92 µM); in test [3] (setting [31]), 1 µg/mL (≈ 5.84 µM); in test [3] (setting [32]), 1 µg/mL (≈ 5.84 µM); in test [3] (setting [33]), 0.06 µg/mL (≈ 0.351 µM); in test [3] (setting [34]) it was 0.5 µg/mL (≈ 2.92 µM); in test [3] (setting [35]), 1 µg/mL (≈ 5.84 µM). Moreover, the minimum inhibitory concentration (MIC) in test [3] (setting [36]) stood at 1 µg/mL (≈ 5.84 µM); in test [3] (setting [37]), 0.06 µg/mL (≈ 0.351 µM); in test [3] (Helicobacter pylori, H. pylori strain no 28, read-out: MIC) it was 0.5 µg/mL (≈ 2.92 µM); in test [3] (setting [38]), 1 µg/mL (≈ 5.84 µM); in test [3] (setting [39]), 0.5 µg/mL (≈ 2.92 µM); in test [3] (setting [40]), 0.25 µg/mL (≈ 1.46 µM). The minimal inhibitory concentration (MIC) in test [3] (setting [41]) turned out to be 1 µg/mL (≈ 5.84 µM).

With `CC[C@H]1OC(=O)[C@H](C)[C@@H](O[C@H]2C[C@@](C)(OC)[C@@H](O)[C@H](C)O2)[C@H](C)[C@@H](O[C@@H]2O[C@H](C)C[C@H](N(C)C)[C@H]2O)[C@](C)(OC)C[C@@H](C)C(=O)[C@H](C)[C@@H](O)[C@]1(C)O` [Clarithromycin], the minimal inhibitory concentration (MIC) in test [2] (H. pylori strain no 34) came out at 0.125 µg/mL (≈ 0.167 µM); in test [2] (Helicobacter pylori), 0.125 µg/mL (≈ 0.167 µM); in test [2] (setting [4]), 0.06 µg/mL (≈ 0.0802 µM); in test [2] (setting [5]), 0.06 µg/mL (≈ 0.0802 µM); in test [2] (setting [6]), 0.06 µg/mL (≈ 0.0802 µM); in test [2] (setting [7]), 0.06 µg/mL (≈ 0.0802 µM). Also, the MIC in test [2] (setting [8]) stood at 0.5 µg/mL (≈ 0.668 µM); in test [2] (setting [9]) it was 0.06 µg/mL (≈ 0.0802 µM); in test [2] (setting [10]) it was 4 µg/mL (≈ 5.35 µM); in test [2] (setting [11]), 16 µg/mL (≈ 21.4 µM); in test [2] (setting [12]), 16 µg/mL (≈ 21.4 µM); in test [2] (setting [13]) it was 16 µg/mL (≈ 21.4 µM). In addition, the MIC is 8 µg/mL (≈ 10.7 µM) in test [2] (setting [14]); 16 µg/mL (≈ 21.4 µM) in test [2] (setting [15]); 16 µg/mL (≈ 21.4 µM) in test [2] (setting [16]); 0.125 µg/mL (≈ 0.167 µM) in test [3] (H. pylori strain no 2); 0.125 µg/mL (≈ 0.167 µM) in test [3] (H. pylori strain no 28); 0.125 µg/mL (≈ 0.167 µM) in test [3] (Helicobacter pylori). Besides, the MIC in test [3] (setting [17]), in test [3] (setting [18]), in test [3] (setting [19]), in test [3] (setting [20]), in test [3] (setting [21]) and in test [3] (setting [22]) was 0.06 µg/mL (≈ 0.0802 µM) throughout. The MIC in test [3] (setting [23]), in test [3] (setting [24]), in test [3] (setting [25]), in test [3] (setting [26]), in test [3] (setting [27]) and in test [3] (setting [28]) was 0.06 µg/mL (≈ 0.0802 µM) each time. The minimal inhibitory concentration (MIC) in test [3] (setting [29]) came out at 0.06 µg/mL (≈ 0.0802 µM); in test [3] (setting [30]), 0.06 µg/mL (≈ 0.0802 µM); in test [3] (setting [31]), 0.06 µg/mL (≈ 0.0802 µM); in test [3] (setting [32]), 0.06 µg/mL (≈ 0.0802 µM); in test [3] (Helicobacter pylori, H. pylori strain no 19, read-out: MIC), 0.06 µg/mL (≈ 0.0802 µM); in test [3] (Helicobacter pylori, H. pylori strain no 20, read-out: MIC) it was 0.06 µg/mL (≈ 0.0802 µM). In addition, the minimal inhibitory concentration (MIC) came to 0.06 µg/mL (≈ 0.0802 µM) in test [3] (Helicobacter pylori, H. pylori strain no 21, read-out: MIC); 2 µg/mL (≈ 2.67 µM) in test [3] (Helicobacter pylori, H. pylori strain no 22, read-out: MIC); 0.06 µg/mL (≈ 0.0802 µM) in test [3] (setting [33]); 0.06 µg/mL (≈ 0.0802 µM) in test [3] (setting [34]); 0.06 µg/mL (≈ 0.0802 µM) in test [3] (setting [35]); 0.06 µg/mL (≈ 0.0802 µM) in test [3] (setting [36]). Moreover, the minimum inhibitory concentration (MIC) in test [3] (setting [37]), in test [3] (setting [38]), in test [3] (setting [39]), in test [3] (setting [40]) and in test [3] (setting [41]) was 0.06 µg/mL (≈ 0.0802 µM) throughout.
